What was measured:
[1] = system: MMEJ (resection dependent reporter); experiment: Extrachromosomal MMEJ reporter assay, resection dependent, HEK-293; assay type: cell-based; details: Homo sapiens, HEK293, HEK-293, 24 h, read-out: MMEJ inhibition EC50
Description: MMEJ resection-independent and MMEJ resection-dependent reporter assays performed as previously described. In brief, HEK-293 cells were resuspended in supplemented SF nucleofection solution (Lonza) containing nanoluciferase DNA substrate and Firefly luciferase plasmid (Promega) at a ratio of 100 μl SF: 1500 ng nanoluciferase substrate: 1000 ng Firefly plasmid: ∼1.5 × 10^6 cells. Cells were electroporated and recovered into fresh media before seeding into a 96-well plate pre-dosed with compounds and DMSO control.
After 24 h, Firefly and NanoLuc levels were detected using the Nano-Glo® Dual-Luciferase® Reporter Assay system (Promega) as per the manufacturer’s instructions. NanoLuc luminescence (reporter) was normalized to Firefly luminescence (control) to determine substrate repair. Percentage repair was calculated relative to the DMSO control.

GEN1 = biological target: T1, GEN1 (Homo sapiens, UniProt Q17RS7); experiment: Fluorescence-based nuclease activity assay, GEN1; assay type: biochemical; details: n = 11, SD = 569; cognate substrate
T1 construct: Truncated GEN1 (1-527) was expressed in insect cells; Strep-tag (implied by Streptrap column); made in house; host or cells: insect cells
Description: (§1) MSC778 was dissolved in dimethyl sulphoxide (DMSO) to give a 10 mM stock. FEN1/EXO1: compound was dispensed into black 384-shallow well microplates (Greiner #784076). The compound was dispensed as an 11-point dose response with a 3-fold serial dilution from a top concentration of 10 mM (to give a final in-assay concentration of 100 µM). GEN1/XPG: MSC778 was dispensed into black 1536-well plates (Greiner #782076). The compound was dispensed as a 20-point dose response with a 3-fold serial dilution from a top concentration of 10 mM (to give a final in-assay concentration of 100 µM). The volume of DMSO was adjusted to ensure that each well contained 1% (v/v) DMSO in the final assay. Control wells containing DMSO alone or inhibitor at sufficient concentration to cause complete inhibition of the reaction were also included. […]
(§2) 5 µl (FEN1/EXO1) or 3 µl per well (GEN1/XPG) of stop buffer (20 mM Tris pH 7.5, 300 mM EDTA) was added to all wells, then the plates were read on the CLARIOstar Plus (BMG LABTECH Ltd.) using the Fluorescein (FITC) wavelengths (Ex 483 ± 14, Em 530 ± 30, Dichroic auto/502.5) and auto focal height/gain settings.
(§3) All data analysis was carried out using Genedata Screener software. IC50 values were calculated using the SmartFit function.

HAP1 USP1KO cells = experiment: Cell viability assay (CTG), 7 days; assay type: cell-based; details: two independent USP1KO lines
Description: Cells were seeded in 150 μl of media in 96-well plates or in 70 μl of media in 384-well plates pre-dosed with compounds (8–10 points dose response) with a D300e digital dispenser (Tecan) and incubated for 24 h at 37°C and 5% CO2. Cell proliferation at the end of the assay (7 days) was measured using CTG (Promega, G9243). CTG luminescence was normalized to vehicle treated control for each cell line, and data were fitted with a nonlinear regression curve (four parameters) to generate compound sensitivity curves and determine IC50 or EC50 (half maximal inhibitory/effective concentration) values as indicated.

NanoLuc-FEN1 = biological target: T2, NanoLuc-FEN1 (Homo sapiens, UniProt P39748); experiment: NanoBRET cellular target engagement assay in HEK-293 cells; assay type: cell-based; details: more potent than MSC781
T2 construct: host or cells: HEK-293
Description: The NanoBRET™ assay was set-up and performed by Promega, Madison, USA [40]. The tracer compound (“tracer 6”) was synthesized based on an in-house compound. A NanoLuc®-FEN1 expression plasmid was transiently transfected into HEK-293 cells and 20 µl of subsequent cell/DNA suspension dispensed into wells of 384-well assay plates. Tracer 6 (final concentration 125 nM) and test compounds (10 step 1:3 dilution from a top concentration of 10 µM) in 100% DMSO were dispensed with a Echo Labcyte (Beckman Coulter) in technical duplicates.
To induce NanoLuc activity, 10 µl of 3× detection substrate NanoBRET™ Nano-GLO® Live Cell Solution in OptiMEM with digitonin (final concentration 150 µg/ml) were added per well. Kinetics were followed by luminescence multimode reader (DonorEm 450nm/AcceptorEm 610 nm) for 1 h. BRET ratios were calculated and resulting mBRET values were graphed versus compound concentrations and fitted to a nonlinear regression curve (four parameters) to determine IC50 values.
In this assay, NanoBRET occurs between a fluorescent moiety (acceptor) on a tracer molecule and the NanoLuc tag (donor) on FEN1 that are in close proximity.

XPG = biological target: T3, XPG (Homo sapiens, UniProt P28715); experiment: Fluorescence-based nuclease activity assay, XPG; assay type: biochemical; details: n = 10, SD = 0.86; cognate substrate
T3 construct: XPG (1-1186); Strep-tag (C); made in house; host or cells: Sf9 insect cells
Description: as §1, §2, §3

EXO1 = biological target: T4, EXO1 (Homo sapiens, UniProt Q9UQ84); experiment: Fluorescence-based nuclease activity assay, EXO1; assay type: biochemical; details: n = 3, SD = 223; cognate substrate
T4 construct: EXO1 (1-846); purchased Peak Proteins, Macclesfield, UK
Description: as §1, §2, §3

T2 sequence (P39748 whole entry): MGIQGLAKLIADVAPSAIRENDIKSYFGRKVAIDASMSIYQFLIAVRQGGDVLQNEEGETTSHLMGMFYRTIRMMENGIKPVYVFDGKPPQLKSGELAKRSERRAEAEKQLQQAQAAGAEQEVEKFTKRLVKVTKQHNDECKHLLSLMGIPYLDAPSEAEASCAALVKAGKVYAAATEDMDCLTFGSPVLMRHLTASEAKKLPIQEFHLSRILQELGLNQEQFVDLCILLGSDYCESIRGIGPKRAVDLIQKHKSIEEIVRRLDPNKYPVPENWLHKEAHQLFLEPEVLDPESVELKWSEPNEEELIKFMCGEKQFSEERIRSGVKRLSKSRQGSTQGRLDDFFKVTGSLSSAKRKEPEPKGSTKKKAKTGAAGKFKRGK
T4 sequence (Q9UQ84 whole entry): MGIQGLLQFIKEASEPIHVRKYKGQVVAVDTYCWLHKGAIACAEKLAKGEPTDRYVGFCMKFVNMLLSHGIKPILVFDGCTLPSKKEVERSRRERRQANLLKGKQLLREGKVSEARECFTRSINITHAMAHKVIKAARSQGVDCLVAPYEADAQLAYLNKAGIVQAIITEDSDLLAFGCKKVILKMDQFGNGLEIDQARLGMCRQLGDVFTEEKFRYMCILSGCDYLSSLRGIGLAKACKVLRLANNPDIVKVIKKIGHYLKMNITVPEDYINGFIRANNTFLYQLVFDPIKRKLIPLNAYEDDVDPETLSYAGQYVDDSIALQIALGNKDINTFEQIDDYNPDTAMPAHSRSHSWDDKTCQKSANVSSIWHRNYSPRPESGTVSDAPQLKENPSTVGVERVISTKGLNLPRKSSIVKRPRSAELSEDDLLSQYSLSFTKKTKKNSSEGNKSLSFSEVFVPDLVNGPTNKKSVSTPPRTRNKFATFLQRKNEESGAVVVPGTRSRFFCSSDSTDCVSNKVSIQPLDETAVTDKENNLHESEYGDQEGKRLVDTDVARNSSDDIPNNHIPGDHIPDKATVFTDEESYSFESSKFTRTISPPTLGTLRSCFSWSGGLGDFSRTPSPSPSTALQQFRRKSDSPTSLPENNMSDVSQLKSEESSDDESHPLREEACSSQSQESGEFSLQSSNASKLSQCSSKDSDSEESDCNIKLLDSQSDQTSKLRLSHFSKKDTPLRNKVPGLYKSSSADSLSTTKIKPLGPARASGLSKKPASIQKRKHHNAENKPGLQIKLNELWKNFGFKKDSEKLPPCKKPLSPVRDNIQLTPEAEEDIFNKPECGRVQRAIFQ
T3 sequence (P28715 whole entry): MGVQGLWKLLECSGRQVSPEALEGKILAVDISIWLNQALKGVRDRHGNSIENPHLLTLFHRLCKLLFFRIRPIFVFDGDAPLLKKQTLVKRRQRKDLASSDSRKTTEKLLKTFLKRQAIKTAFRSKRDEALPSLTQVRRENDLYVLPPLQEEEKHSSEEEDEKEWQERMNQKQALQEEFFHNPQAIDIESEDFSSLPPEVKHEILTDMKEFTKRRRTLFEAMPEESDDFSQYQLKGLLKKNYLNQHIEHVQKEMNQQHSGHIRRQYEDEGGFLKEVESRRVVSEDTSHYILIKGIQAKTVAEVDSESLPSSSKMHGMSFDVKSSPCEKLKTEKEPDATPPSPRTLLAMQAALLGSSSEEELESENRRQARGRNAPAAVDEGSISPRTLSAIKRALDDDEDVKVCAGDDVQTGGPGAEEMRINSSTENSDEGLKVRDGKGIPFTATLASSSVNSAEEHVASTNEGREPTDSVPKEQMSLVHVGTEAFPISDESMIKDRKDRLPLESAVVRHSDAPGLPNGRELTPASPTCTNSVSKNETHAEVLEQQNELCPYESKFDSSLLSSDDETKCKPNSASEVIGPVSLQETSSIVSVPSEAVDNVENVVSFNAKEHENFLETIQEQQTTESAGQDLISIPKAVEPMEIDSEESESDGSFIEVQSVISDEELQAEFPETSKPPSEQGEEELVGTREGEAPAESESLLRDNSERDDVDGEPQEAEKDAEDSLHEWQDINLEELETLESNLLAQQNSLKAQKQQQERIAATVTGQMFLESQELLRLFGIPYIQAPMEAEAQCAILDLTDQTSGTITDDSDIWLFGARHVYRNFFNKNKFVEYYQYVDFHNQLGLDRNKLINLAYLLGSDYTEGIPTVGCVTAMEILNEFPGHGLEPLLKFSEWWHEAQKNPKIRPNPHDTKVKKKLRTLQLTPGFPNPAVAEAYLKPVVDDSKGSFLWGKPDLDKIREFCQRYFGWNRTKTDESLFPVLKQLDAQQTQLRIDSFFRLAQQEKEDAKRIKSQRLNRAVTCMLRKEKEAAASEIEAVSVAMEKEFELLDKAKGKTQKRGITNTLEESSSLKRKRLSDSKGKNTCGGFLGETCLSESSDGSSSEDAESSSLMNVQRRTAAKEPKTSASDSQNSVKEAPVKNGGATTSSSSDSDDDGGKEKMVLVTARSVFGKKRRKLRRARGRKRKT
T1 sequence (Q17RS7 1-527): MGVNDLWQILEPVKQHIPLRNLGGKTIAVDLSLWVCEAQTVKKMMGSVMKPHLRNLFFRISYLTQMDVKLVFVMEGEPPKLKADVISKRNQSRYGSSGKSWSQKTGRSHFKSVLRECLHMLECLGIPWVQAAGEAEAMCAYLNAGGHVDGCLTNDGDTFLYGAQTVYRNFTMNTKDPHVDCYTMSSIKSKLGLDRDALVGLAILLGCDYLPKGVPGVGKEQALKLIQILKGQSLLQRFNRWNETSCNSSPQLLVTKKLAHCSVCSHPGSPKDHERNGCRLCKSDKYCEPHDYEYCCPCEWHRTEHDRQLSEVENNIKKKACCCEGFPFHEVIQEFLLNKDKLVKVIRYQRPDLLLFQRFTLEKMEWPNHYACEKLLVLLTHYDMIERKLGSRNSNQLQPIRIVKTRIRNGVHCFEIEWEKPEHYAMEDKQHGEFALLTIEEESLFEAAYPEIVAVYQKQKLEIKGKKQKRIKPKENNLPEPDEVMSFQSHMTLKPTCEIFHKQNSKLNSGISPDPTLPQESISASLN

## C[C@H](Oc1nn2c(c(O)c1=O)C(=O)N1CCOC[C@@H]1C2)c1ccc2ccc(Cl)cc2c1 [MSC778]
[1]
  EC50: 840 nM
GEN1
  IC50: 1660 nM
HAP1 USP1KO cells
  Sensitization of USP1KO cell lines compared to isogenic HAP1 WT cells: 3 fold
NanoLuc-FEN1
  NanoBRET potency relative to MSC781: 23 fold
XPG
  IC50: 218 nM
EXO1
  IC50: 871 nM
